Patent US20070031815A1, “Screening method for identifying hsp90 modulators” (University of Liverpool, priority 2003, published 2007)
Like-named read-outs stand apart in the source and are kept apart here.

System: yeast cells
Test: Entry of known Hsp90 inhibitors into yeast cells
Type: cell-based
Source text: Yeast have many advantages in development of screening systems or biosensors-compared to mammalian cells they are robust; easy and cheap to grow; genetically stable; and represent a reduced health risk to workers (viral contamination of cell lines becomes an issue in low cost high throughput screening). […] However, yeast are not always permeable to compounds that would be able to enter mammalian cells. […] This problem has been overcome in the past by using yeast mutants that have enhanced sensitivity to toxic chemicals. These mutations are in genes described as Pleiotrophic Drug Resistance (PDR) or Multiple Drug Resistance (MDR) gene. One class of PDR genes are those affecting the ergosterol balance in the yeast membrane. Mammalian cells have cholesterol in the plasma membrane while yeast have ergosterol. Mutations in the gene ERG6 (ISE1) cause cells to become sensitive to a range of lipophilic drugs. Another class of mutations affect active drug uptake or efflux, for example mutations to the ATP dependent efflux pump PDR5 increase drug sensitivity. A combination of mutations from these different pathways further increases sensitivity. In addition to increasing permeability of the plasma membrane and reducing efflux better drug entry can also be brought about by changing the cell wall structure, this can also increase osmotic sensitivity, which facilitates release of proteins. Mutation of the GDP-mannose phosphorylase (SRB1) interferes with the glycosylation of cell wall proteins, this increases drug and osmotic sensitivity. Hsp90 itself is also involved in the maintenance of cell wall integrity via its functional interaction with Ste11. Ste11 is a MAPKKK that normally activates the MAPKK Pbs2 which in turn activates the Hog-1 transcriptional activator. Hog-1 activation modifies the cell wall in response to osmotic shock, disruption of Hog-1 causes drug and osmotic sensitivity. There are also dominant mutations which increase sensitivity to cytotoxic agents, such as ISE2 which increases sensitivity to a range of topoisomerase II inhibitors.

C=CCNC1=C2C[C@@H](C)C[C@H](OC)[C@H](O)[C@@H](C)/C=C(\C)[C@H](OC(N)=O)[C@@H](OC)/C=C\C=C(/C)C(=O)NC(=CC1=O)C2=O [Compound 17-AAG, 17-allylamino demethoxy geldanamycin]
entry into yeast cells (yeast permeability): enter yeast cells easily

COC1=C2C[C@@H](C)C[C@H](OC)[C@H](O)[C@@H](C)/C=C(\C)[C@H](OC(N)=O)[C@@H](OC)/C=C\C=C(/C)C(=O)NC(=CC1=O)C2=O [GA, Geldanamycin]
entry into yeast cells (yeast permeability): enter yeast cells easily

CO[C@H]1[C@@H](OC)C[C@H](C)[C@@H](OC)C2=CC(=O)C=C(NC(=O)/C(C)=C/C=C\[C@H](OC)[C@@H](OC(N)=O)/C(C)=C/[C@@H]1C)C2=O [Herbimycin]
entry into yeast cells (yeast permeability): enter yeast cells easily

CO[C@H]1[C@@H](OC)C[C@H](C)[C@@H](OC)C2=CC(=O)C=C(NC(=O)/C(C)=C/C=C\[C@H](C)[C@@H](OC(N)=O)/C(C)=C/[C@@H]1C)C2=O [Macbecin, Macbecin I]
entry into yeast cells: enter yeast cells easily

CO[C@@H]1[C@@H](OC(N)=O)[C@@H](O)[C@H](Oc2ccc3c(O)c(NC(=O)c4ccc(O)c(CC=C(C)C)c4)c(=O)oc3c2C)OC1(C)C [Novobiocin]
entry into yeast cells (yeast permeability): enter yeast cells easily

C[C@@H]1C[C@H]2O[C@@H]2/C=C\C=C\C(=O)Cc2c(Cl)c(O)cc(O)c2C(=O)O1 [Radicicol]
entry into yeast cells (yeast permeability): enter yeast cells easily
